# According to patent US6399310B1, “Methods for improving the therapeutic response of humans having major depression and carrying the gene for apolipoprotein E4” (Akzo Nobel N.V., priority 2001, dated 2002):
# Columns and labels:
# Assay type in all cases: in vivo, human
# [1] = system: patients 65 years of age and older with major depression; test: Clinical Global Impression Scale (CGI) in 8-week double-blind comparison; conditions: day 14
# Excerpt: Clinical Global Impression Scale (CGI) (Guy, W., ECDEU Assessment Manual for Psychopharmacology, DHEW Publication No. (ADM) 76-338, rev. 1976). The CGI scale is a global 7-point rating of the severity of the illness taking into account the preceding week (CGI-Severity) and a global 7-point rating of the clinical status of the subject since baseline (CGI-Change). A responder is defined as being “Much Improved” or “Very Much Improved” —having a CGI score of at least 2 according to CGI-Change. Thus, a higher CGI-Severity score corresponds to more severe depression whereas a higher CGI-Change score corresponds to lessened depression, or an improvement in alleviating the symptoms of depression.
# (§1) All statistical analyses were performed using the SAS software package (available from SAS Institute). For clinical measures of depression (HDRS-21, HDRS-17, GDS, and CGI), analyses of covariance were performed with baseline values as the covariate, and apoE genotype (ε4 allele carrier vs. non-carrier) and medication (mirtazapine, paroxetine) as the predictors. For remitter and responder analyses of clinical measures of depression, Cochran-Mantel-Haenszel statistics were used. For comparison of medication and genotype groups on baseline demographic measures, two-way analyses of variance were used.
# [2] = system: patients 65 years of age and older with major depression; test: Geriatric Depression Scale (GDS) in 8-week double-blind comparison
# Description: Geriatric Depression Scale (GDS) (Yesavage, J. A. et al., J. Psychiatr. Res. 17:37-49, 1983), a self-rating scale developed specifically for rating depression in the elderly. In the GDS, a lower rating signifies less depression. GDS 50% responders are defined as subjects with a decrease on a post-baseline assessment of at least 50% as compared to baseline.
# as §1
# [3] = system: patients 65 years of age and older with major depression; test: Hamilton Depression Rating Scale (HDRS-17 / HDRS-21) in 8-week double-blind comparison of paroxetine and mirtazapine
# Excerpt: Hamilton Depression Rating Scale (HDRS; 17 and 21 item versions of a structured interview) (Hamilton, M., J. Neurol. Neurosurg. Psychiatr. 23:56-62, 1960; Hamilton, M., Br. J. Soc. Clin. Psychol. 6:278-296, 1967). […] In other words, a lower rating in the HDRS scale signifies less depression. In contrast, HDRS remitters, which are those patients showing the least depression, are defined as subjects who have an HDRS-17 score of less than 7 at a post-baseline visit.
# as §1
# [4] = day 14, Caucasian subjects, p=0.006
SMILES,"CGI scores, ε4 carriers compared with noncarriers ([1]; Caucasian subjects)","GDS scores, effect of ε4 allele ([2]; day 14, full cohort)","50% reduction in GDS score, ε4 carriers compared with noncarriers ([2]; day 28, full cohort)","HDRS scores, ε4 carriers compared with noncarriers ([3]; day 14, Caucasian subjects)","CGI scores, mirtazapine treated compared with paroxetine treated subjects ([1]; Caucasian subjects, p=0.037)","CGI scores, mirtazapine-treated compared with paroxetine-treated patients ([1]; full cohort)","GDS scores, ε4 carriers compared with noncarriers ([2]; day 14, Caucasian subjects)","HDRS-17 scores, mirtazapine-treated compared with paroxetine-treated patients ([3]; day 7, full cohort)","mean HDRS-17 scores, mirtazapine compared with paroxetine [3, 4]","mean HDRS-21 scores, mirtazapine compared with paroxetine [3, 4]","HDRS-17 scores, mirtazapine-treated compared with paroxetine-treated patients ([3]; day 14, full cohort)","HDRS-21 scores, mirtazapine-treated compared with paroxetine-treated patients ([3]; day 14, full cohort)","HDRS-17 50% responders, ε4 carriers compared with non-ε4 carriers ([3]; day 14, full cohort, p=0.049)"
Fc1ccc([C@@H]2CCNC[C@H]2COc2ccc3c(c2)OCO3)cc1 [paroxetine],no differences,no significant difference,no effect of apoE genotype,lees improvement,,,,,,,,,
"CN1CCN2c3ncccc3Cc3ccccc3C2C1 (stereo not shown) [mirtazapine, 1,2,3,4,10,14b-hexahydro-2-methylpyrazino[2,1-a]pyrido[2,3-c]benzazepine]",significantly better,large decrease in GDS scores,,greater improvement,significantly better,Significantly greater improvement,significantly lower,significantly greater improvement,significantly lower,significantly lower,Significantly greater improvement,Significantly greater improvement,significantly more
